pEC50: −log10 of the molar value.
How the values were obtained:
[1] = test system: endothelial cells (EA.hy926); assay: Transendothelial Electric Resistance (TER) assay of thrombin-induced endothelial barrier disruption; type: cell-based
Source text: The bottom curve in each panel of the figure is labeled as IIa for thrombin alone and represents the observed effects for thrombin (IIa) in the absence of peptide. In each panel, IIa was always present for each peptide added. The number in each panel indicates the concentration of each peptide for the respective curves. The peptide concentration of 0 is represented by the bottom curve labeled “IIa”. (A) the dose response inhibition over time of TER, expressed by Normalized Cell Index (NCI) by the PAR1 derived peptide P1(47-66) or TR47 using concentrations between 5 and 50 nM. (B) the dose response inhibition over time of NCI by the PAR3-derived peptide P3(42-65) or P3R using a 5 to 50 nM concentration range. (C) The NCI dose response inhibition over time by the short sequence PAR1-derived peptide P1(47-55) using a range of concentrations between 50 nM and 100 μM peptide. (D) The NCI dose response inhibition over time by the short sequence PAR3-derived peptide P3(42-54) using a range of concentrations between 1 μM and 200 μM peptide. (E) The NCI dose response inhibition over time by the hybrid peptide G10 in which the P1(47-55) peptide described in panel C was linked to a PAR3 peptide P3(51-65) by using 10 Gly residues. In this case the range of concentrations to study the dose response inhibition was between 3 and 50 nM peptide. An estimate for the percentage of activity for each peptide dilution in presence of thrombin can be quantified by obtaining the Area under the Curve (AUC) for each peptide dilution in comparison to the value for the AUC for thrombin alone in the absence of any peptide. These values were used to calculate the potency of each PAR peptide.
Transendothelial Electric Resistance (TER)-based assays were used to monitor the disruption of endothelial barrier integrity caused by thrombin. The anti-inflammatory, vasculoprotective actions of different PAR peptides for protecting against thrombin-induced vascular leakage on cultured endothelial cells (EA.hy926) were followed in real time using an iCELLigence machine (ACEA Biosciences Inc, San Diego, Calif.). EA.hy926 cells at a density of 10,000/well were pipetted into the wells of gold-plated microelectrode sensor (L8, Acea Biosciences). Subsequently, the increase of electrical resistance was monitored as cells grew and spread out on the microelectrodes to obtain confluence (reaching a plateau) over the TER plates connected to the recording instrument that detected in real time the changes in TER for each well. The effects of different PAR-derived peptides at the indicated concentrations were tested for dose-response inhibition of thrombin's effects when each of the peptide dilutions was added 30 min prior to the addition of thrombin (0.25 nM final in all wells). The percentage of inhibition was proportional to the increase in TER signal over time. Cell index values, reflecting TER signals, were normalized prior to addition of thrombin following manufacturer's directions.

caspase 1 = assay: Caspase 1 activity assay in PMA-differentiated THP1 cells treated with LPS and ATP; type: cell-based, human; settings: peptide at 2 nM-20 nM (tested 0-500 nM)
Description: THP1-null (THP1) cells were plated at a final concentration of 1×10^6/mL in 96 well plates and incubated with PMA (0.5 μM) for 3 hours 37° C. in supplemented RPMI. Media was subsequently changed every 24 hours for 3 days. Various subsets of wells were selected and cells were treated for 60 minutes at 37° C. in serum-free RPMI with: (A) APC (4 μg/mL), TR47 (50 μM-2 nM), scrTR47 (50 μM), SFLLRN (50 μM), TFLLRN (50 μM); (B) P3R (50 μM-500 nM), P3K (50 μM); (C) APC (4 or 1 μg/mL), TR47 (8 nM), P3R (500 nM) or TR47+P3R (8 nM and 500 nM, respectively); (D) TR47 (0-128 nM) (●)±P3R (500 nM) (□); (E) P3R (0-500 nM) (●)±TR47 (1 nM) (□). Following DPBS wash, cells were incubated with LPS (1 μg/mL) for 3 hours at 37° C. in serum-free RPMI. After a DPBS wash, cells were incubated with ATP (5 mM) in the presence or absence of 10 μM YVAD (caspase 1 inhibitor) or 2.5 μM ZVAD (pan-caspase inhibitor) for 45 minutes at 37° C., prior to performing the caspase 1 activity assay following manufacturer's directions measuring luminescence (relative luminescent units, RLU). (D & E) Experimental caspase 1 activity was normalized to YVAD (caspase 1 inhibitor) luminescence units. (A-E) Data points represent mean±S.D. of at least 3 independent experiments. *P<0.05 (vs. LPS+ATP); #P<0.05 (vs. LPS+ATP & APC, TR47 or P3R); **P<0.005 (vs. LPS+ATP & TR47+500 nM P3R); n.s. not significant.
THP1 cells were plated at a final concentration of 1×10^6/mL in 96 well plates and incubated with PMA (0.5 μM) for 3 hours 37° C. in supplemented RPMI. Media was subsequently changed every 24 hours for 3 days. Selected wells were treated with APC (4 μg/mL), (A) 50 μM or (B) 2 μM of P3R, P3Rm, P3R 51-65, P3R 51-59, P3R 54-59 or P3R 59-65 for 1 hour, washed with DPBS, and incubated with LPS (1 μg/mL) for 3 hours at 37° C. in serum-free RPMI. Cells were washed with DPBS and incubated with ATP (5 mM) in the presence or absence of 10 μM YVAD (caspase 1 inhibitor; C1i) or 2.5 μM ZVAD (pan-caspase inhibitor; pCi) for 45 minutes at 37° C., prior to performing the caspase 1 activity assay following manufacturer's directions measuring luminescence (relative luminescent units, RLU). (C) Diagram showing the PAR3 sequence, peptide sequences and relative (anti-inflammatory) activity. These include sequences of P3R (SEQ ID NO:4), P3Rm (SEQ ID NO:8), P3R 51-65 (SEQ ID NO:9), P3R 51-59 (SEQ ID NO:10), P3R 54-59 (SEQ ID NO:54) and P3R 59-65 (SEQ ID NO:55).
THP1 cells were plated at a final concentration of 1×10^6/mL in 96 well plates and incubated with PMA (0.5 μM) for 3 hours 37° C. in supplemented RPMI. Media was subsequently changed every 24 hours for 3 days. Selected wells were treated with APC (4 μg/mL), TR47, in (A) 9-mer (TR47 9-mer; NPNDKYEPF (SEQ ID NO:36)) or Ac-TR47 (Acylated TR47) at either 50 μM or 10 nM or (B) 50 μM of 16-mer-TR47, 8-mer-TR47, 6-mer-TR47, TR47 N−1, TR47 N−2, TR47 N−5, TR47AQ, TR47AD, TR47AA or TR48-54 for 1 hour, washed with DPBS, and incubated with LPS (1 μg/mL) for 3 hours at 37° C. in serum-free RPMI. Cells were washed with DPBS and incubated with ATP (5 mM) in the presence or absence of 10 μM YVAD (caspase 1 inhibitor; C1i) or 2.5 μM ZVAD (pan-caspase inhibitor; pCi) for 45 minutes at 37° C., prior to performing the caspase 1 activity assay following manufacturer's directions measuring luminescence (relative luminescent units, RLU). #P<0.001 (vs. LPS+ATP), **P<0.005 (vs. LPS+ATP), * (P<0.05 vs. LPS+ATP). (C) Diagram showing the PAR1 sequence, peptide sequences and relative (anti-inflammatory) activity. These include sequences of TR47 (SEQ ID NO:7), Ac-TR47 (SEQ ID NO:56), 16-mer-TR47 (SEQ ID NO:43), 9-mer-TR47 (SEQ ID NO:36), 8-mer-TR47 (SEQ ID NO:35), 6-mer-TR47 (SEQ ID NO:33), TR47 N−1 (SEQ ID NO:47), TR47 N−2 (SEQ ID NO:51), TR47 N−5 (SEQ ID NO:48), TR47AQ (SEQ ID NO:49), TR47AD (SEQ ID NO:52), TR47AA (SEQ ID NO:50) and TR48-54 (SEQ ID NO:53). […]

NPNDKYEPFGGGGGGGGGGFPFSALEGWTGATIT [G10, PAR1/PAR3 fusion peptide, P1(47-55) linked to P3(51-65) by 10 Glycine residues]
effect on thrombin-induced disruption of endothelial barrier ([1]; peptide at 3 to 50 nM): very significant effects | effectiveness relative to PAR3 peptide P3(42-54) alone ([1]; protection of endothelial barrier integrity): > 100 fold | potency relative to the long PAR1 peptide TR47 ([1]; protection of endothelial barrier integrity, 6 nM G10 compared to 50 nM PAR1 peptide): ~8 fold | pEC50 ([1]; stabilization of endothelial cell barrier integrity, thrombin 0.25 nM, peptide added 30 min prior, read-out: half-maximum observed activity): ~8.22 | caspase-1 activity (caspase 1): a significant reduction in caspase-1 activity
